Source: US5208344A, “Naphthalenepropionic acid derivatives as anti-inflammatory/antiallergic agents” (American Home Products Corporation, priority 1991, dated 1993)
Counter-ions that a name gives are not always drawn.

Tested on: ovalbumin-induced bronchoconstriction
Assay: inhibition of antigen (ovalbumin)-induced bronchoconstriction in anesthetized guinea pigs
Type: in vivo
Conditions: orally administered 4 hours before induction; guinea pig; 240 min
Protocol: The compounds of the invention are tested to measure their in vivo ability to inhibit the bronchoconstriction induced in anesthetized guinea pigs by exogenously administered antigen.
Male Hartley guinea pigs (400-700 gm) are sensitized three weeks prior to antigen (ovalbumin-OA) challenge as follows: each guinea pig is given two intramuscular injections--0.35 ml of Grade V OA, 50 mg/ml, into each hindlimb.
Guinea pigs, fasted overnight but allowed water adlibitum, are anesthetized with 1.2 g/kg of urethane (intraperitoneal). Supplemental does of […] of urethane are administered intraperitoneally as needed. One carotid artery and one jugular vein are cannulated to allow for the monitoring of blood pressure and the administration of drugs, respectively. A duodenal cannula is inserted for intraduodenal dosing studies. The trachea of each animal is cannulated and connected to a Harvard respirator. […] Respiratory overflow pressure is measured from a side arm off the tracheal cannula which is connected via a Gould or Beckman pressure transducer to a suitable strip chart recorder. […]
Test compounds are administered intravenously, perorally, or intraduodenally at appropriate times prior to OA challenge. […] Control experiments are used to determine the effects of solvents on the measured parameters, and test data is corrected for any significant solvent effects.
Bronchoconstriction is assessed as increases in respiratory overflow pressure (cm H2 O). Changes in blood pressure (mm Hg) are also recorded.
Test compound-induced changes in the respiratory overflow pressure are assessed as percent changes from control experiments. […] The net change in overflow pressure is measured 5 minutes after antigen challenge and is calculated as follows. […] The percent change value for the drug treated group versus the control group is calculated as follows: […]

## C[C@H](C(=O)O)c1ccc2cc(OCc3ccc4ccccc4n3)ccc2c1 [Example 17, S-(α)-α-Methyl-6-(2-quinolinylmethoxy)-2-naphthaleneacetic acid, tromethanime salt]
  ED50 (ovalbumin-induced bronchoconstriction): 7 mg/kg
